Measured values reported in PubChem BioAssay AID330 (DTP/NCI, 2004).
Where “and” joins values, the source holds several entries; their conditions need not be identical. Identical values can stand only once. Inconclusive results and toxic doses are left out. Rule for the calls: active = survival T/C of 150% or more; inactive = T/C below 125% in these data.

Tested on: P388 leukemia ip, CD2F1 mice, survival T/C
Assay: NCI In Vivo Anticancer Drug Screen. Data for tumor model P388 Leukemia (intraperitoneal) in CD2F1 (CDF1) mice
Details: endpoint: median survival time, higher = longer survival
In short: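 Mice carrying the transplanted tumor received test compound or vehicle. Survival was recorded in each group, and the value is the treated-group measurement divided by that of the vehicle-treated control group.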

[1] = dose: 12.5 mg/kg/injection, schedule: Q01DX009 (ip), vehicle: saline with Tween-80
[2] = dose: 25.0 mg/kg/injection, schedule: Q01DX009 (ip), vehicle: saline with Tween-80

Measured: T/C

CCOC(=O)N(NC(=O)c1ccc(N(CCCl)CCCl)cc1)C(C)=O
inactive: dose: 3.13 mg/kg/injection, schedule: Q01DX009 (ip), vehicle: other 103 % of control | dose: 6.25 mg/kg/injection, schedule: Q01DX009 (ip), vehicle: other 100 % of control | dose: 12.5 mg/kg/injection, schedule: Q01DX009 (ip), vehicle: other 101 % of control | dose: 25.0 mg/kg/injection, schedule: Q01DX009 (ip), vehicle: other 111 % of control | dose: 50.0 mg/kg/injection, schedule: Q01DX009 (ip), vehicle: other 111 % of control and 114 % of control | dose: 88.0 mg/kg/injection, schedule: Q01DX009 (ip), vehicle: other 110 % of control | dose: 133.0 mg/kg/injection, schedule: Q01DX009 (ip), vehicle: other 112 % of control

C/C(N=NC(=S)N1CCC(C)CC1)=C1\C=CC=CN1O
inactive: dose: 50.0 mg/kg/injection, schedule: Q01DX005 (ip), vehicle: saline with Tween-80 103 % of control | dose: 100.0 mg/kg/injection, schedule: Q01DX005 (ip), vehicle: saline with Tween-80 103 % of control | dose: 200.0 mg/kg/injection, schedule: Q01DX005 (ip), vehicle: saline with Tween-80 108 % of control

CNC(=O)C1OC(n2cnc3c(N)ncnc32)C(O)C1O (stereo unspecified)
inactive: dose: 0.78 mg/kg/injection, schedule: Q01DX005 (ip), vehicle: saline with Tween-80 109 % of control and 110 % of control and 120 % of control | dose: 1.56 mg/kg/injection, schedule: Q01DX005 (ip), vehicle: saline with Tween-80 113 % of control and 114 % of control and 116 % of control | dose: 3.13 mg/kg/injection, schedule: Q01DX005 (ip), vehicle: saline with Tween-80 117 % of control

O=C(/C=C/c1ccccc1)Cc1nc2nnc(NC(=O)Nc3ccc(Cl)cc3)n2[nH]c1=O
inactive: dose: 60.0 mg/kg/injection, schedule: Q01DX005 (ip), vehicle: saline with Tween-80 99 % of control | dose: 120.0 mg/kg/injection, schedule: Q01DX005 (ip), vehicle: saline with Tween-80 94 % of control | dose: 240.0 mg/kg/injection, schedule: Q01DX005 (ip), vehicle: saline with Tween-80 102 % of control

Cc1cc(N(C)C)nc2cc(N(C)C)ccc12
inactive: [1] 93 % of control | [2] 103 % of control | dose: 50.0 mg/kg/injection, schedule: Q01DX009 (ip), vehicle: saline with Tween-80 95 % of control and 98 % of control

COc1ccc(/C=N\N=C(/[O-])c2ccc(Cl)cc2)cc1.COc1ccc(/C=N\N=C(/[O-])c2ccc(Cl)cc2)cc1.[Mn+2].[OH3+].[OH3+]
inactive: dose: 50.0 mg/kg/injection, schedule: Q04DX002 (ip), vehicle: saline with Tween-80 102 % of control | dose: 100.0 mg/kg/injection, schedule: Q04DX002 (ip), vehicle: saline with Tween-80 102 % of control | dose: 200.0 mg/kg/injection, schedule: Q04DX002 (ip), vehicle: saline with Tween-80 104 % of control

N#CCc1noc2ccccc12
inactive: [1] 103 % of control | [2] 109 % of control

CC(=O)OC(c1ccccc1)N(Cc1ccccc1)N=O (stereo unspecified)
inactive: dose: 12.5 mg/kg/injection, schedule: Q01DX009 (ip), vehicle: distilled water + Tween-80 111 % of control | dose: 25.0 mg/kg/injection, schedule: Q01DX009 (ip), vehicle: distilled water + Tween-80 111 % of control | dose: 50.0 mg/kg/injection, schedule: Q01DX009 (ip), vehicle: distilled water + Tween-80 118 % of control | dose: 100.0 mg/kg/injection, schedule: Q01DX009 (ip), vehicle: distilled water + Tween-80 117 % of control | dose: 200.0 mg/kg/injection, schedule: Q01DX009 (ip), vehicle: distilled water + Tween-80 119 % of control

C=CCCCCCCCCC(=O)NCC(C)C
inactive: dose: 100.0 mg/kg/injection, schedule: Q04DX003 (ip), vehicle: saline with Tween-80 86 % of control | dose: 200.0 mg/kg/injection, schedule: Q04DX003 (ip), vehicle: saline with Tween-80 95 % of control | dose: 400.0 mg/kg/injection, schedule: Q04DX003 (ip), vehicle: saline with Tween-80 100 % of control

CN(C)C(=O)c1ccccc1SC(=S)NCc1ccccc1
inactive: dose: 60.0 mg/kg/injection, schedule: Q01DX005 (ip), vehicle: Klucel (hydroxypropylcellulose) (HPC) 102 % of control | dose: 120.0 mg/kg/injection, schedule: Q01DX005 (ip), vehicle: Klucel (hydroxypropylcellulose) (HPC) 102 % of control | dose: 240.0 mg/kg/injection, schedule: Q01DX005 (ip), vehicle: Klucel (hydroxypropylcellulose) (HPC) 102 % of control

Cc1ccc2[nH]c(=S)n(CCc3ccccc3)c(=O)c2c1
inactive: dose: 50.0 mg/kg/injection, schedule: Q01DX009 (ip), vehicle: Klucel (hydroxypropylcellulose) (HPC) 99 % of control | dose: 100.0 mg/kg/injection, schedule: Q01DX009 (ip), vehicle: Klucel (hydroxypropylcellulose) (HPC) 97 % of control | dose: 200.0 mg/kg/injection, schedule: Q01DX009 (ip), vehicle: Klucel (hydroxypropylcellulose) (HPC) 97 % of control

O=C(O)C(O)C(O)C(O)C(=O)O (stereo unspecified)
inactive: dose: 50.0 mg/kg/injection, schedule: Q01DX009 (ip), vehicle: saline 101 % of control | dose: 100.0 mg/kg/injection, schedule: Q01DX009 (ip), vehicle: saline 107 % of control | dose: 200.0 mg/kg/injection, schedule: Q01DX009 (ip), vehicle: saline 91 % of control
